We go through two molecules from BindingDB's records for patent US20250326790 (University of Southampton, 2025).

In this assay the target is T1, Hypoxia-inducible factor 1-alpha [228-298] (Homo sapiens, UniProt Q16665).
T1 construct: 228-298
In words: Assessment of HIF-1α and 2α Binding Activity in In Vitro Assays.

pKd: −log10 of the molar value. Where a SMILES comes first, the peptide text is derived from it. [ ]: non-standard residue; d: D form. The star is where a group is joined. Phe(4-I) = N[C@@H](Cc1ccc(I)cc1)C(=O)O; hLeu = CC(C)CC[C@H](N)C(=O)O; Isobutyryl = CC(C)C(=O)*

T1 sequence (Q16665 whole entry): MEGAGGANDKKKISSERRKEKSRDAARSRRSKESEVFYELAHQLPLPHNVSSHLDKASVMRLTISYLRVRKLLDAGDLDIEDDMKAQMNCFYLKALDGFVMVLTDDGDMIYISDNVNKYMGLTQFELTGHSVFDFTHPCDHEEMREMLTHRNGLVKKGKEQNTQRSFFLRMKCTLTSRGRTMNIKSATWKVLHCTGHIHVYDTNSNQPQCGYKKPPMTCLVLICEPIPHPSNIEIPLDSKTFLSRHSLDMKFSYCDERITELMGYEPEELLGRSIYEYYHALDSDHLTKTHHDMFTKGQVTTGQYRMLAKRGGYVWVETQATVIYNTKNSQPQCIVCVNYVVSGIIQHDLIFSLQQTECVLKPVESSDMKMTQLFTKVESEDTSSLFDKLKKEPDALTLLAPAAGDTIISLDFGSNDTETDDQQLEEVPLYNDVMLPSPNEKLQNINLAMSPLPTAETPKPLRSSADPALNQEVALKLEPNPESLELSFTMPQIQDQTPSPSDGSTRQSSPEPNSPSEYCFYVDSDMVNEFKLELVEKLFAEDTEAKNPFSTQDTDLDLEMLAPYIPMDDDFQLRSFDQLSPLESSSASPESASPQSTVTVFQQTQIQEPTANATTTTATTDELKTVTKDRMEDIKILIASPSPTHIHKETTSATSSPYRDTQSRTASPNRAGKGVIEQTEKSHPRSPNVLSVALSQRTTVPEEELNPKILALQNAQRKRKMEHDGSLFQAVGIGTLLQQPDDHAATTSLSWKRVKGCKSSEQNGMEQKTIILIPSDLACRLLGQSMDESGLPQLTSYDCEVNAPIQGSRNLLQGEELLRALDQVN
Method: MST experiments were performed on a Monolith NT.115 system (Nanotemper Technologies GmbH), in assay buffer containing 50 nM labelled protein, 10% DMSO and 0.05% TWEEN-20. MST measurements were performed using 50% LED and 50% MST power.

Consider `CC(C)CC[C@H](NC(=O)C(C)C)C(=O)N[C@@H](Cc1ccc(I)cc1)C(=O)N[C@@H](CS)C(N)=O` [US20250326790, Example 1] (Isobutyryl-[hLeu]-[Phe(4-I)]-Cys-NH2), for which the pKd is less than 4.40. Molecule `CC(C)CC[C@H](NS(=O)(=O)c1ccc(Cl)s1)C(=O)N[C@@H](Cc1ccc(I)cc1)C(=O)N[C@@H](CS)C(=O)NCCCCCCN` [US20250326790, Example 41] showed a pKd of less than 4.00.

By pKd is commonly meant the negative decadic logarithm of the Kd, by convention in mol/L. Higher therefore signals a small Kd.
